The results in this text go back to ChEMBL document CHEMBL1201861, “Genomics of Drug Sensitity in Cancer screening data, Wellcome Trust Sanger Institute”.

Assay [1] deals with D-542MG. Put plainly: cells. The settings on record: Homo sapiens. The format is functional, cell-based.
Description: SANGER: Inhibition of human D-542MG cell growth in a cell viability assay.
The test system of assay [2] is NCI-H889. Put plainly: cells. The class given is functional, cell-based, Homo sapiens. Particulars: Homo sapiens, NCI-H889.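 Further: cell growth inhibition of the cell line, read out with a viability assay.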
Description: SANGER: Inhibition of human NCI-H889 cell growth in a cell viability assay.
Assay [3] concerns COR-L279. Put plainly: SANGER: Inhibition of human COR-L279 cell growth in a cell viability assay. The settings on record: Homo sapiens, COR-L279. The class given is functional, cell-based.
In assay [4] the test system is GDM-1. Put plainly: cells. The format is functional, cell-based, Homo sapiens. Particulars: Homo sapiens, GDM-1.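 Further: cell viability readout used to measure growth inhibition of human GDM-1 cells.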
Description: SANGER: Inhibition of human GDM-1 cell growth in a cell viability assay.
For assay [5], the system named is SUP-T1. Briefly: cells. The settings on record: Homo sapiens, SUP-T1. The format is functional, cell-based, Homo sapiens.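 Further: growth inhibition of human SUP-T1 cells, read out as cell viability.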
Description: SANGER: Inhibition of human SUP-T1 cell growth in a cell viability assay.
The test system of assay [6] is RL. Briefly: cells. The class given is functional, cell-based, Homo sapiens. The settings on record: Homo sapiens, RL.
Description: SANGER: Inhibition of human RL cell growth in a cell viability assay.
Assay [7] concerns IST-SL2. Briefly: cells. The format is functional, cell-based, Homo sapiens. The settings on record: Homo sapiens, IST-SL2.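 Further: growth inhibition of human IST-SL2 cells, read out by a cell viability assay.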
Description: SANGER: Inhibition of human IST-SL2 cell growth in a cell viability assay.
In assay [8] the test system is ECC4. Briefly: cells. The class given is functional, cell-based, Homo sapiens. The settings on record: Homo sapiens, ECC4.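 Further: growth inhibition of ECC4 cells, read out with a cell viability assay.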
Description: SANGER: Inhibition of human ECC4 cell growth in a cell viability assay.
The test system of assay [9] is NB7. Briefly: cells. The class given is functional, cell-based, Homo sapiens. The settings on record: Homo sapiens, NB7.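 Further: growth inhibition of NB7 cells, read out with a cell viability assay.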
Description: SANGER: Inhibition of human NB7 cell growth in a cell viability assay.
The test system of assay [10] is NCI-H1436. Put plainly: cells. The format is functional, cell-based, Homo sapiens. Particulars: Homo sapiens, NCI-H1436.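 Further: growth suppression of human NCI-H1436 cells, determined with a cell viability readout.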
Description: SANGER: Inhibition of human NCI-H1436 cell growth in a cell viability assay.
The test system of assay [11] is THP-1. Briefly: cells. The class given is functional, cell-based, Homo sapiens. Particulars: Homo sapiens, THP-1.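 Further: growth inhibition of THP-1 cells, read out via a cell viability assay.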
Description: SANGER: Inhibition of human THP-1 cell growth in a cell viability assay.
The test system of assay [12] is UACC-812. Briefly: cells. The format is functional, cell-based. Particulars: Homo sapiens.
Description: SANGER: Inhibition of human UACC-812 cell growth in a cell viability assay.
The subject of assay [13] is SCC-3. Put plainly: cells. The format is functional, cell-based, Homo sapiens. Particulars: Homo sapiens, SCC-3.
Description: SANGER: Inhibition of human SCC-3 cell growth in a cell viability assay.
Assay [14] relates to SIG-M5. Briefly: cells. The class given is functional, cell-based, Homo sapiens. The settings on record: Homo sapiens, SIG-M5.
Description: SANGER: Inhibition of human SIG-M5 cell growth in a cell viability assay.
Assay [15] relates to CPC-N. Briefly: cells. The format is functional, cell-based, Homo sapiens. The settings on record: Homo sapiens, CPC-N.
Description: SANGER: Inhibition of human CPC-N cell growth in a cell viability assay.
Assay [16] concerns LB647-SCLC. Put plainly: cells. The class given is functional, cell-based, Homo sapiens. Particulars: Homo sapiens, LB647-SCLC.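 Further: cell growth inhibition, read out by a viability assay.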
Description: SANGER: Inhibition of human LB647-SCLC cell growth in a cell viability assay.
In assay [17] the test system is SU-DHL-1. Put plainly: SANGER: Inhibition of human SU-DHL-1 cell growth in a cell viability assay. The format is functional, cell-based. The settings on record: Homo sapiens, SU-DHL-1.
In assay [18] the test system is D-392MG. Briefly: cells. The class given is functional, cell-based. The settings on record: Homo sapiens.
Assay [19] concerns NCI-H345. Briefly: cells. The class given is functional, cell-based, Homo sapiens. The settings on record: Homo sapiens, NCI-H345.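 Further: growth inhibition of NCI-H345 cells measured with a cell viability assay.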
Description: SANGER: Inhibition of human NCI-H345 cell growth in a cell viability assay.
Assay [20] deals with EVSA-T. Briefly: cells. The settings on record: Homo sapiens, EVSA-T. The format is functional, cell-based, Homo sapiens.
Description: SANGER: Inhibition of human EVSA-T cell growth in a cell viability assay.
Assay [21] concerns M14. Put plainly: cells. The settings on record: Homo sapiens. The format is functional, cell-based.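 Further: growth inhibition of M14 cells, read out with a cell viability assay.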
Description: SANGER: Inhibition of human M14 cell growth in a cell viability assay.
Assay [22] concerns RMG-I. Briefly: cells. The format is functional, cell-based. Particulars: Homo sapiens.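 Further: growth inhibition of human RMG-I cells, read out with a cell viability assay.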
Description: SANGER: Inhibition of human RMG-I cell growth in a cell viability assay.
Assay [23] relates to MFE-280. Briefly: cells. The settings on record: Homo sapiens. The format is functional, cell-based.
Description: SANGER: Inhibition of human MFE-280 cell growth in a cell viability assay.
In assay [24] the test system is NCI-H1755. Briefly: cells. The class given is functional, cell-based. Particulars: Homo sapiens.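 Further: cell viability readout used to measure growth inhibition of NCI-H1755 cells.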
Description: SANGER: Inhibition of human NCI-H1755 cell growth in a cell viability assay.
For assay [25], the system named is NCI-H2052. Briefly: cells. The settings on record: Homo sapiens. The format is functional, cell-based.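 Further: growth inhibition of NCI-H2052 cells, read out with a cell viability assay.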
Description: SANGER: Inhibition of human NCI-H2052 cell growth in a cell viability assay.
For assay [26], the system named is ACHN. Briefly: cells. The format is functional, cell-based. Particulars: Homo sapiens.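 Further: cell viability read-out used to gauge how strongly growth of human ACHN cells is suppressed.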
Description: SANGER: Inhibition of human ACHN cell growth in a cell viability assay.
Assay [27] has as its system YAPC. Put plainly: cells. The class given is functional, cell-based. Particulars: Homo sapiens.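 Further: growth inhibition of YAPC cells, measured with a cell viability assay.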
Description: SANGER: Inhibition of human YAPC cell growth in a cell viability assay.
Assay [28] has as its system CAL-62. Put plainly: cells. The class given is functional, cell-based. The settings on record: Homo sapiens.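 Further: growth inhibition of CAL-62 cells, read out with a cell viability assay.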
Description: SANGER: Inhibition of human CAL-62 cell growth in a cell viability assay.
Assay [29] has as its system ASPC1. Briefly: cells. The class given is functional, cell-based. Particulars: Homo sapiens.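 Further: growth inhibition of AsPC-1 cells, read out with a cell viability assay.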
Description: SANGER: Inhibition of human AsPC-1 cell growth in a cell viability assay.
Assay [30] has as its system ChaGo-K-1. Put plainly: cells. The class given is functional, cell-based. The settings on record: Homo sapiens.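 Further: growth inhibition of ChaGo-K-1 cells, read out with a cell viability assay.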
Description: SANGER: Inhibition of human ChaGo-K-1 cell growth in a cell viability assay.
Assay [31] concerns SW1783. Briefly: cells. The class given is functional, cell-based. Particulars: Homo sapiens.
Description: SANGER: Inhibition of human SW1783 cell growth in a cell viability assay.
Assay [32] relates to KYSE-450. Put plainly: cells. The format is functional, cell-based. The settings on record: Homo sapiens.
Description: SANGER: Inhibition of human KYSE-450 cell growth in a cell viability assay.
Assay [33] concerns U2OS. Put plainly: cells. The format is functional, cell-based, U-2-OS. The settings on record: Homo sapiens.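 Further: growth inhibition of human U-2-OS cells, determined with a cell viability assay.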
Description: SANGER: Inhibition of human U-2-OS cell growth in a cell viability assay.
For assay [34], the system named is NCI-H650. Put plainly: cells. The class given is functional, cell-based. Particulars: Homo sapiens.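 Further: growth inhibition of NCI-H650 cells, read out by a viability assay.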
Description: SANGER: Inhibition of human NCI-H650 cell growth in a cell viability assay.
For assay [35], the system named is Daoy. Briefly: cells. The format is functional, cell-based. The settings on record: Homo sapiens.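 Further: daoy cell growth inhibition, read out as cell viability.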
Description: SANGER: Inhibition of human Daoy cell growth in a cell viability assay.
In assay [36] the test system is MHH-ES-1. Put plainly: cells. The format is functional, cell-based. The settings on record: Homo sapiens.
Description: SANGER: Inhibition of human MHH-ES-1 cell growth in a cell viability assay.
The subject of assay [37] is NCI-H2452. Briefly: cells. The class given is functional, cell-based. The settings on record: Homo sapiens.
Description: SANGER: Inhibition of human NCI-H2452 cell growth in a cell viability assay.
Assay [38] has as its system 5637. Briefly: cells. The format is functional, cell-based. The settings on record: Homo sapiens.
Description: SANGER: Inhibition of human 5637 cell growth in a cell viability assay.
In assay [39] the test system is NCI-H2122. Put plainly: cells. The settings on record: Homo sapiens. The class given is functional, cell-based.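 Further: growth inhibition of the cells, read out with a cell viability assay.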
Description: SANGER: Inhibition of human NCI-H2122 cell growth in a cell viability assay.
The test system of assay [40] is G-402. Put plainly: cells. The class given is functional, cell-based. The settings on record: Homo sapiens.
Description: SANGER: Inhibition of human G-402 cell growth in a cell viability assay.
For assay [41], the system named is BXPC-3. Put plainly: cells. The class given is functional, cell-based. Particulars: Homo sapiens.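 Further: growth inhibition of human BxPC-3 cells, read out by a cell viability assay.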
Description: SANGER: Inhibition of human BxPC-3 cell growth in a cell viability assay.
The test system of assay [42] is COR-L105. Put plainly: cells. The format is functional, cell-based. The settings on record: Homo sapiens.
Description: SANGER: Inhibition of human COR-L105 cell growth in a cell viability assay.
Assay [43] deals with HLE. Put plainly: cells. The format is functional, cell-based. The settings on record: Homo sapiens.
Description: SANGER: Inhibition of human HLE cell growth in a cell viability assay.
Assay [44] relates to HCC1806. Put plainly: cells. The class given is functional, cell-based. The settings on record: Homo sapiens.
Description: SANGER: Inhibition of human HCC1806 cell growth in a cell viability assay.
For assay [45], the system named is SW756. Put plainly: cells. The format is functional, cell-based. Particulars: Homo sapiens.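 Further: growth inhibition of human SW756 cells, read out with a cell viability assay.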
Description: SANGER: Inhibition of human SW756 cell growth in a cell viability assay.
Assay [46] concerns GMS-10. Briefly: cells. The format is functional, cell-based. The settings on record: Homo sapiens.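 Further: growth inhibition of GMS-10 cells, read out as cell viability.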
Description: SANGER: Inhibition of human GMS-10 cell growth in a cell viability assay.
Assay [47] deals with SW1573. Put plainly: cells. The format is functional, cell-based. Particulars: Homo sapiens.
Description: SANGER: Inhibition of human SW1573 cell growth in a cell viability assay.
In assay [48] the test system is NCI-H2170. Put plainly: cells. The class given is functional, cell-based. The settings on record: Homo sapiens.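 Further: cell viability assay measuring growth inhibition of human NCI-H2170 cancer cells.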
Description: SANGER: Inhibition of human NCI-H2170 cell growth in a cell viability assay.
The subject of assay [49] is BFTC-905. Briefly: cells. The class given is functional, cell-based. Particulars: Homo sapiens.
Description: SANGER: Inhibition of human BFTC-905 cell growth in a cell viability assay.
In assay [50] the test system is CAL-85-1. Put plainly: cells. The settings on record: Homo sapiens. The format is functional, cell-based.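 Further: growth inhibition of human CAL-85-1 cells, read out with a cell viability assay.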
Description: SANGER: Inhibition of human CAL-85-1 cell growth in a cell viability assay.
Assay [51] deals with LCLC-103H cell line. Briefly: cells. The format is functional, cell-based. The settings on record: Homo sapiens.
Description: SANGER: Inhibition of human LCLC-103H cell growth in a cell viability assay.
Assay [52] relates to A673. Put plainly: cells. The class given is functional, cell-based. Particulars: Homo sapiens.
Description: SANGER: Inhibition of human A673 cell growth in a cell viability assay.
The subject of assay [53] is NCI-H1437. Put plainly: cells. The class given is functional, cell-based. Particulars: Homo sapiens.
Description: SANGER: Inhibition of human NCI-H1437 cell growth in a cell viability assay.
The test system of assay [54] is CAPAN-1. Briefly: cells. The class given is functional, cell-based. The settings on record: Homo sapiens.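 Further: growth suppression of CAPAN-1 cells, read out by a cell viability assay.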
Description: SANGER: Inhibition of human CAPAN-1 cell growth in a cell viability assay.
Assay [55] concerns GP5d. Briefly: cells. The format is functional, cell-based. Particulars: Homo sapiens.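 Further: growth inhibition of human GP5d cells, read out with a cell viability assay.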
Description: SANGER: Inhibition of human GP5d cell growth in a cell viability assay.
Assay [56] has as its system CAL-51. Briefly: cells. Particulars: Homo sapiens. The format is functional, cell-based.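 Further: human CAL-51 cell line, growth inhibition read out via a cell viability assay.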
Description: SANGER: Inhibition of human CAL-51 cell growth in a cell viability assay.
For assay [57], the system named is HT1197. Briefly: cells. The format is functional, cell-based, HT-1197. The settings on record: Homo sapiens.
Description: SANGER: Inhibition of human HT-1197 cell growth in a cell viability assay.
The subject of assay [58] is T47D. Briefly: cells. The class given is functional, cell-based. The settings on record: Homo sapiens.
Description: SANGER: Inhibition of human T47D cell growth in a cell viability assay.
The test system of assay [59] is ESS-1. Briefly: cells. The class given is functional, cell-based. Particulars: Homo sapiens.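 Further: growth inhibition of human ESS-1 cells, read out by a cell viability assay.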
Description: SANGER: Inhibition of human ESS-1 cell growth in a cell viability assay.

Consider `CC(C)C[C@H](NC(=O)[C@H](Cc1ccccc1)NC(=O)c1cnccn1)B(O)O` [BORTEZOMIB], for which the concentration for half-maximal inhibition (IC50) (commonly the point on the concentration scale where inhibition reaches its midpoint) in assay [1] was 0.000329 µM; in [2], > 0.02 µM; in [3], > 0.02 µM; in [4] (read-out: IC50), 0.00677 µM; in assay [5] it was > 0.02 µM; in assay [6] it was > 0.02 µM. For the same compound, the IC50 in assay [7] is 0.00131 µM; in assay [8], > 0.02 µM; in [9] it was 0.0159 µM; in [10], 0.017 µM; in [11] it was > 0.02 µM; in assay [12], > 0.02 µM. The IC50 in assay [13] was 0.00237 µM; in assay [14] it was > 0.02 µM; in assay [15], > 0.02 µM; in assay [16] it was 0.00422 µM; in assay [17], 0.00724 µM; in assay [18], 0.0011 µM. Also, the IC50 in [19] was 0.0072 µM; in [20], 0.0036 µM.
On to `C[C@@H](Oc1cc(-c2cnn(C3CCNCC3)c2)cnc1N)c1c(Cl)ccc(F)c1Cl` [CRIZOTINIB], for which the IC50 in [2], in assay [3], in [4] (read-out: IC50), in [5], in [6] and in assay [7] was > 2 µM in each case. In addition, the 50% inhibitory concentration (IC50) in assay [8] is > 2 µM; in assay [9] it was > 2 µM; in assay [10], > 2 µM; in [11], > 2 µM; in assay [12], > 2 µM; in assay [13] it was 0.357 µM. Moreover, the half-inhibitory concentration (IC50) was > 2 µM in [14]; > 2 µM in assay [15]; > 2 µM in [16]; 0.337 µM in assay [17]; > 2 µM in [19]; > 2 µM in [20].
`Nc1ccccc1NC(=O)c1ccc(CNC(=O)OCc2cccnc2)cc1` [ENTINOSTAT]: the IC50 is 1.89 µM in [1]; > 5 µM in assay [2]; 0.71 µM in [3]; 0.887 µM in [4] (read-out: IC50); > 5 µM in assay [5]; > 5 µM in assay [6]. Further, the IC50 is 2 µM in assay [7]; 3.97 µM in assay [8]; > 5 µM in assay [9]; 4.18 µM in [10]; > 5 µM in [11]; > 5 µM in assay [12]. For the same compound, the 50% inhibitory concentration (IC50) was 0.061 µM in [13]; 0.578 µM in [14]; 0.805 µM in assay [15]; 0.367 µM in assay [16]; 0.659 µM in assay [17]; > 5 µM in [18]. The results for the half-maximal inhibitory concentration (IC50) in assay [19] and in assay [20] were 2.33 µM and 1.18 µM, respectively.
Consider `Cc1ccc(NC(=O)c2ccc(CN3CCN(C)CC3)cc2)cc1Nc1nccc(-c2cccnc2)n1` [IMATINIB], for which the IC50 in assay [2], in assay [3], in assay [4], in [5], in [6] and in assay [7] was > 2 µM in each case. Besides, the 50% inhibitory concentration (IC50) in [8] was > 2 µM; in assay [9] it was > 2 µM; in assay [10] it was 0.978 µM; in assay [11] it was > 2 µM; in assay [12] it was > 2 µM; in assay [13], > 2 µM. Besides, the concentration for half-maximal inhibition (IC50) in assay [15], in assay [16], in assay [17], in [19] and in assay [20] was > 2 µM in each case.
Take `COc1cc(N2CCC(N3CCN(C)CC3)CC2)ccc1Nc1ncc(Cl)c(Nc2ccccc2S(=O)(=O)C(C)C)n1` [TAE-684]: the half-maximal inhibitory concentration (IC50) in assay [2] was > 2 µM; in assay [3] it was > 2 µM; in assay [4] (read-out: IC50), 0.471 µM; in assay [5] it was > 2 µM; in [6], > 2 µM; in assay [7], > 2 µM. In addition, the IC50 is > 2 µM in assay [8]; > 2 µM in [9]; > 2 µM in [10]; > 2 µM in assay [11]; > 2 µM in assay [12]; < 0.00781 µM in assay [13]. For the same compound, the IC50 in [14] is 0.292 µM; in [15] it was 1.85 µM; in assay [16], 1.35 µM; in assay [17], 0.0486 µM; in [19] it was > 2 µM; in assay [20] it was > 2 µM.
Consider `NC(=O)c1ccc(N(C(N)=O)c2c(F)cccc2F)nc1-c1ccc(F)cc1F` [VX-702], for which the IC50 in assay [21], in assay [1], in [22], in [23], in assay [24] and in assay [25] was > 2 µM each time. In addition, the half-inhibitory concentration (IC50) in [26], in [27], in [28], in [29], in [30] and in [31] was > 2 µM throughout. Further, the IC50 in assay [32], in assay [33], in assay [34], in assay [35], in assay [9] and in assay [36] was > 2 µM each time. For the same compound, the IC50 in assay [37], in assay [38], in assay [39], in assay [40], in assay [41] and in assay [42] was > 2 µM in each case. For the same compound, the concentration for half-maximal inhibition (IC50) in assay [43], in assay [44], in assay [45], in assay [46], in assay [47] and in assay [48] was > 2 µM in each case. Also, the IC50 in assay [49], in assay [50], in [51], in [52], in [53] and in assay [54] was > 2 µM in each case. Further, the IC50 in assay [18], in [55], in assay [56], in assay [57], in assay [58] and in assay [59] was > 2 µM throughout.
